Test results published in article PMC5557808 (Nature Communications, 2017).
Where a SMILES comes first, the peptide text is derived from it. [ ]: non-standard residue; d: D form. The star is where a group is joined. X1 = CC[N+](CC)(CC(=O)Nc1c(C)cccc1C)Cc1cccc(C(=O)*)c1; Aha = [N-]=[N+]=NCC[C@H](N)C(=O)O

Target: T1, Leucine aminopeptidase (AP) (Sus scrofa, UniProt P15145)
T1 construct: Leucine aminopeptidase (AP; Mw = 280 kDa) from porcine kidney; purchased Sigma-Aldrich Chemie, Schnelldorf, Germany; host or cells: porcine kidney (tissue-derived)
T1 sequence (P15145 1-963): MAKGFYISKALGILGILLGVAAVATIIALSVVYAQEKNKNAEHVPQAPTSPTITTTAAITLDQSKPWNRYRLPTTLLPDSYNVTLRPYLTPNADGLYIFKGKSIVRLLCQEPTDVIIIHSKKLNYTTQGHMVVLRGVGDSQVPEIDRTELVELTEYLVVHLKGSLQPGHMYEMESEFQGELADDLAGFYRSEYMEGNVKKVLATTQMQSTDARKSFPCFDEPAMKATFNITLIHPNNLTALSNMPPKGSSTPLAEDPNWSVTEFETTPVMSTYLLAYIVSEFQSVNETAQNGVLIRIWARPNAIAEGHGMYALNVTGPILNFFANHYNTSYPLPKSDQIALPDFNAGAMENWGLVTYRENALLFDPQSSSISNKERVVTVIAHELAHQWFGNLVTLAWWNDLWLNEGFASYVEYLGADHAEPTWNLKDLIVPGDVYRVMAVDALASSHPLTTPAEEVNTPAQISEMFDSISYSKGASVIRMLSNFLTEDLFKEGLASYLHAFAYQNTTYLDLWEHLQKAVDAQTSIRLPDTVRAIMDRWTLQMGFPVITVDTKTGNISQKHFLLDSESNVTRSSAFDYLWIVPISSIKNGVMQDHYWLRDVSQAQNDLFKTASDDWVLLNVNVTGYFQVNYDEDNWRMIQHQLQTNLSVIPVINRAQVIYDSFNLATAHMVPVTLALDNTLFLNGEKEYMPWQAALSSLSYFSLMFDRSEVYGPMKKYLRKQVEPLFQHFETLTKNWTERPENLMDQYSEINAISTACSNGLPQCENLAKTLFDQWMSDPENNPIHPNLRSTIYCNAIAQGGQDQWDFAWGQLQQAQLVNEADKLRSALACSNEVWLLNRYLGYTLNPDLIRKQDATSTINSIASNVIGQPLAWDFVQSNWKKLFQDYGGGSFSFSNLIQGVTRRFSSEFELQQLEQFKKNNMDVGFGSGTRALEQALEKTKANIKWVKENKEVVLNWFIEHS
Test: Aminopeptidase (AP) incubation
Assay type: biochemical, porcine
Conditions: AP 3.1 nM (0.87 µg/mL), 30 min, 37 °C, after 22 h with 1800 ng/mL MMP-8; LC-MS
Procedure: Leucine aminopeptidase (AP; Mw = 280 kDa) from porcine kidney dissolved in AP buffer (50 mM Tris-HCl, 1 mM CaCl2, and 150 mM NaCl at pH 7.0) was used. L-leucine-p-nitroanilide (0.125 mg/mL) was used as control substrate. For AP digestion, 1 mg of purified lyophilized peptide was diluted in 2 mL AP buffer resulting in a final concentration of 0.5 mg/mL substrate. To evaluate the impact of AP concentration on peptide cleavage, AP was added at concentrations of 0 (negative control), 0.87, 8.7, 39, and 78 µg/mL and the samples were incubated at 37 °C for 1 h. For analysis of the AP incubation time, an AP concentration of 0.87 µg/mL was used and analyzed after 10, 20 min and 1, 2, 3, and 6 h. To stop the enzyme activity, samples were kept at 95 °C for 15 min. Afterwards, HPLC analyses were performed (as described in the Supplementary Information) to analyze the relative decrease of the main peak as compared to the negative control. Further details are given in the Supplementary Methods.
MMP -9) in a concentration of 0.4 ng/µL (50 µL) were mixed with MMP -8 buffer (37 µL), detection enz yme (5 µL) and substrate (8µL; all fro m Q uic kZ yme® ). The acti vi t y was meas ur ed for 12 hours in inter vals of 10 minutes. […]
Aminopeptidase (AP) incubation
Leucine A minopeptidase (AP; M w = 280 kD a) from porcine kidney dissolved in AP buffer (50 mM Tris-HCl, 1 mM CaCl2 and 150 mM NaCl at pH 7.0) was used. L-leu cin e-p-nitroan ilide (0.125mg/ mL) was used as control substr at e. […] Fo r anal ysis of the impact of AP incubation time, the identical conditions were used (AP concentration of 0.87 µg / mL (and analyzed after 10, 20 minutes and 1, 2, 3 and 6 hours ). To stop the enzymatic activit y, sa mp les wer e kept at 95 °C for 15 minutes. A fterwards, H PLC analys es were p erformed (as descr ibed) to an al yze th e relative d ecr eas e of the ma i n pea k as co mp ared to the negative control (see […]
V(B)/(V(A)+V(B)) = 5 % to 90 % over 10 min, V(B)/(V(A)+V(B)) = 90 % for 5 min, V(B)/(V(A)+V(B)) = 90 % to 5 % over 3 min. […] UV detection was measured at 254 nm. […]

CC[C@H](C)[C@H](NC(=O)CNC(=O)[C@H](CCC(N)=O)NC(=O)[C@@H]1CCCN1C(=O)CNC(=O)c1cccc(C[N+](CC)(CC)CC(=O)Nc2c(C)cccc2C)c1)C(=O)N[C@@H](C)C(=O)NCC(=O)N[C@@H](CCC(N)=O)C(=O)N[C@@H](CCN=[N+]=[N-])C(=O)N[C@@H](CCC(N)=O)C(=O)O [ID #1c] (X1-GPQGIAGQ[Aha]Q-OH)
effect of additional AP incubation after complete MMP-8 cleavage: no difference
